Assay results reported in article PMC7821958, “Synthesis, in vitro enzyme activity and molecular docking studies of new benzylamine-sulfonamide derivatives as selective MAO-B inhibitors” (Journal of Enzyme Inhibition and Medicinal Chemistry, 2020).
Where two headings read alike, the source gives them in different places.

Experiments:
hMAO-A = biological target: T1, hMAO-A (Homo sapiens, UniProt P21397); test: MAO-A inhibition assay, fluorometric (Amplex Red / horseradish peroxidase-coupled); assay type: biochemical; settings: read-out: MAO-A % Inhibition
T1 construct: purchased Sigma-Aldrich (Steinheim, Germany)
T1 sequence (P21397 1-527): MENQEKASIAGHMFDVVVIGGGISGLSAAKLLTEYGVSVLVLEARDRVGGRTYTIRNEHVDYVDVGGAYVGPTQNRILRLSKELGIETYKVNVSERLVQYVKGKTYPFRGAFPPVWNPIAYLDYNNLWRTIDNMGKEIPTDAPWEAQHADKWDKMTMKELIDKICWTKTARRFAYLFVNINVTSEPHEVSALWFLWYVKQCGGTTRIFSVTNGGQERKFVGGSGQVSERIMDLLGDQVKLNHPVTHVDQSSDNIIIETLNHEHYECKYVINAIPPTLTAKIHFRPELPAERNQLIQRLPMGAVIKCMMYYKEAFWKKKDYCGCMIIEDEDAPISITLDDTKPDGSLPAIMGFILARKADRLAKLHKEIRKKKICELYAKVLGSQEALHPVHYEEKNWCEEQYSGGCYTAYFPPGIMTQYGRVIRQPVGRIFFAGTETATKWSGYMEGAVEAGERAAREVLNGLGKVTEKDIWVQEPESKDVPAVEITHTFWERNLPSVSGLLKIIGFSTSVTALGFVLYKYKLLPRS
Protocol: A Biotek Precision XS robotic system (USA) was used for all pipetting operations. Measurements were performed with the use of BioTek-Synergy H1 microplate reader (USA) based upon the fluorescence generated (excitation, 535 nm, emission, 587 nm) over a 30 min period, in which the fluorescence increased linearly.
Enzymatic assay was performed according to recent method pronounced by our research group[17]^,[20–22]. Control, blank and all concentrations of obtained compounds were tested in quadruplicate and inhibition percent was calculated with following equation: % Inhibition=(FCt2 − FCt1) − (FIt2 − FIt1)/FCt2 − FCt1 × 100
FCt2: Fluorescence of a control well measured at t2 time, FCt1: Fluorescence of a control well measured at […]: Fluorescence of an inhibitor well measured at t2 time, FIt1: Fluorescence of an inhibitor well measured at t1 time,
The IC50 values were calculated using a dose-response curve achieved by plotting the percentage inhibition versus the log concentration using GraphPad ‘PRISM’ software (version 5.0).
All the obtained benzylamine-sulphonamide derivatives 4a–4u were investigated for their inhibitory activity against MAO isoforms using a previously described in vitro fluorometric method, which is based on the detection of H2O2 in a horseradish peroxidase-coupled reaction using 10-acetyl-3,7-dihydroxyphenoxazine (Amplex Red reagent)[17]^,[20–22].
The assay was carried out in two steps. […].

hMAO-B = biological target: T2, hMAO-B (Homo sapiens, UniProt P27338); test: MAO-B inhibition assay, fluorometric (Amplex Red / horseradish peroxidase-coupled); assay type: biochemical; settings: for inhibition at 1000 µM: 10^−3 M; for inhibition at 100 µM: 10^−4 M; for inhibition at 10 µM: 10^−5 M; for inhibition at 1 µM: 10^−6 M; for inhibition at 0.1 µM: 10^−7 M; for inhibition at 0.01 µM: 10^−8 M; for inhibition at 0.001 µM: 10^−9 M; for IC50: Table 2, mean ± SD, read-out: IC50 against MAO-B;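 on all read-outs here: fluorescence read at Ex 535 nm and Em 587 nm over 30 min, linear phase, inhibition relative to uninhibited control wells, IC50 from log concentration–response curves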
T2 construct: purchased Sigma-Aldrich (Steinheim, Germany)
T2 sequence (P27338 1-520): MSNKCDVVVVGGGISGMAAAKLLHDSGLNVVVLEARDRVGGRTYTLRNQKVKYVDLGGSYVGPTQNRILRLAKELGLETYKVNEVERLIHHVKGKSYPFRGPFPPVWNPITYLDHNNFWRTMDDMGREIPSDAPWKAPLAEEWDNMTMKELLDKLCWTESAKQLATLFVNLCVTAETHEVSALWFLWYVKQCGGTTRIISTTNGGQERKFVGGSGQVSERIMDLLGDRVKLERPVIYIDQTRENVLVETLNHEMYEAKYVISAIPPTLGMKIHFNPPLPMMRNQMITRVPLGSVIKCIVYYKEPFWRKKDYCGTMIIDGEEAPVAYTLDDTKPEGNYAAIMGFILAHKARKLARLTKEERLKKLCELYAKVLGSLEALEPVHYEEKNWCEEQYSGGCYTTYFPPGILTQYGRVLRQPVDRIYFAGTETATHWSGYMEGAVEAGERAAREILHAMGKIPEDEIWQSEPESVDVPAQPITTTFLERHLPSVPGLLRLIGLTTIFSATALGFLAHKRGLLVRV
Excerpt: FCt2: Fluorescence of a control well measured at t2 time, FCt1: Fluorescence of a control well measured at t2 time, FIt2: Fluorescence of an inhibitor well measured at t2 time, FIt1: Fluorescence of an inhibitor well measured at t1 time,

inhibition at 1000 µM (hMAO-A; 10^−3 M) [%] | inhibition at 100 µM (hMAO-A; 10^−4 M) [%] | inhibition at 1000 µM (hMAO-B) [%] | inhibition at 100 µM (hMAO-B) [%] | melting point [°C] | inhibition at 10 µM (hMAO-B) [%] | inhibition at 1 µM (hMAO-B) [%] | inhibition at 0.1 µM (hMAO-B) [%] | inhibition at 0.01 µM (hMAO-B) [%] | inhibition at 0.001 µM (hMAO-B) [%] | IC50 (hMAO-B) [nM] | Structure (SMILES) | inhibition at 100 µM (hMAO-A) [%] | inhibition at 1000 µM (hMAO-A) [%]
42.3 ± 0.63 | 25.2 ± 0.712 | 74.2 ± 1.05 | 43.8 ± 0.882 | 229 to 231 | – | – | – | – | – | – | Cc1ccc(CN(C(=O)CSc2nncn2C)c2ccc(S(N)(=O)=O)cc2)cc1 [Compound 4l, 2-((4-Methyl-4H-1,2,4-triazol-3-yl)thio)-N-(4-methylbenzyl)-N-(4-sulfamoylphenyl)acetamide] | – | –
42.4 ± 0.821 | 32.7 ± 0.697 | 67.5 ± 0.957 | 33.1 ± 0.798 | 148 to 150 | – | – | – | – | – | – | Cc1ccc(CN(C(=O)CSc2nc3ccccc3o2)c2ccc(S(N)(=O)=O)cc2)cc1 [Compound 4r, 2-(Benzoxazol-2-ylthio)-N-(4-methylbenzyl)-N-(4-sulfamoylphenyl)acetamide] | – | –
46 ± 0.863 | 30.1 ± 0.627 | 90.6 ± 1.39 | 83.3 ± 1.26 | – | 76.3 ± 1.11 | 73.2 ± 1.06 | 48.6 ± 0.957 | 32.5 ± 0.721 | 20.9 ± 0.623 | 146 ± 6 | NS(=O)(=O)c1ccc(N(Cc2ccccc2)C(=O)CSc2ccccn2)cc1 [Compound 4f, N-Benzyl-2-(pyridin-2-ylthio)-N-(4-sulfamoylphenyl)acetamide] | – | –
39.1 ± 0.821 | 20.3 ± 0.608 | 96.2 ± 1.1 | 48.8 ± 0.879 | 88 to 90 | – | – | – | – | – | – | NS(=O)(=O)c1ccc(N(Cc2ccccc2)C(=O)CSc2nc3ccccc3s2)cc1 [Compound 4h, 2-(Benzothiazol-2-ylthio)-N-benzyl-N-(4-sulfamoylphenyl)acetamide] | – | –
– | – | – | – | – | – | – | – | – | – | – | C#CCN(C)CCCOc1ccc(Cl)cc1Cl [Clorgiline, reference compound] | 98.3 ± 1.82 | 99.4 ± 1.96
36.8 ± 0.678 | 29.9 ± 0.539 | 65.1 ± 0.985 | 36 ± 0.726 | – | – | – | – | – | – | – | COc1ccc2sc(SCC(=O)N(Cc3ccc(C)cc3)c3ccc(S(N)(=O)=O)cc3)nc2c1 [Compound 4u, 2-((5-Methoxybenzothiazol-2-yl)thio)-N-(4-methylbenzyl)-N-(4-sulfamoylphenyl)acetamide] | – | –
40.2 ± 0.97 | 21.5 ± 0.632 | 72.2 ± 0.959 | 38.3 ± 0.638 | – | – | – | – | – | – | – | Cc1ccc(CN(C(=O)CSc2nnnn2C)c2ccc(S(N)(=O)=O)cc2)cc1 [Compound 4n, 2-((1-Methyl-1H-tetrazol-5-yl)thio)-N-(4-methylbenzyl)-N-(4-sulfamoylphenyl)acetamide] | – | –
45.2 ± 0.971 | 24.9 ± 0.792 | 70.5 ± 1.07 | 35.6 ± 0.622 | 121 to 123 | – | – | – | – | – | – | Cc1ccc(CN(C(=O)CSc2ccccn2)c2ccc(S(N)(=O)=O)cc2)cc1 [Compound 4p, N-(4-Methylbenzyl)-2-(pyridin-2-ylthio)-N-(4-sulfamoylphenyl)acetamide] | – | –
37.6 ± 0.714 | 20.1 ± 0.621 | 90.3 ± 1.3 | 86.3 ± 1.29 | 201 to 203 | 82.5 ± 1.11 | 76.9 ± 1.27 | 45.3 ± 0.974 | 32.6 ± 0.728 | 20.4 ± 0.683 | 188 ± 8 | Cn1cnnc1SCC(=O)N(Cc1ccccc1)c1ccc(S(N)(=O)=O)cc1 [Compound 4b, N-Benzyl-2-((4-methyl-4H-1,2,4-triazol-3-yl)thio)-N-(4-sulfamoylphenyl)acetamide] | – | –
47.2 ± 0.979 | 32.2 ± 0.621 | 94.7 ± 1.34 | 47.3 ± 0.963 | 82 to 84 | – | – | – | – | – | – | NS(=O)(=O)c1ccc(N(Cc2ccccc2)C(=O)CSc2nc3ccccc3o2)cc1 [Compound 4g, 2-(Benzoxazol-2-ylthio)-N-benzyl-N-(4-sulfamoylphenyl)acetamide] | – | –
35.1 ± 0.989 | 26.5 ± 0.856 | 92.3 ± 1.11 | 47 ± 0.958 | 137 to 139 | – | – | – | – | – | – | Cn1ccnc1SCC(=O)N(Cc1ccccc1)c1ccc(S(N)(=O)=O)cc1 [Compound 4a, N-Benzyl-2-((1-methyl-1H-imidazol-2-yl)thio)-N-(4-sulfamoylphenyl)acetamide] | – | –
48.2 ± 0.825 | 37.4 ± 0.679 | 90.8 ± 1.25 | 45.1 ± 0.958 | – | – | – | – | – | – | – | COc1ccc2sc(SCC(=O)N(Cc3ccccc3)c3ccc(S(N)(=O)=O)cc3)nc2c1 [Compound 4j, N-Benzyl-2-((5-methoxybenzothiazol-2-yl)thio)-N-(4-sulfamoylphenyl)acetamide] | – | –
39.3 ± 0.701 | 30.3 ± 0.582 | 79.5 ± 0.957 | 39 ± 0.702 | 153 to 155 | – | – | – | – | – | – | Cc1ccc(CN(C(=O)CSc2nccn2C)c2ccc(S(N)(=O)=O)cc2)cc1 [Compound 4k, 2-((1-Methyl-1H-imidazol-2-yl)thio)-N-(4-methylbenzyl)-N-(4-sulfamoylphenyl)acetamide] | – | –
44.2 ± 0.877 | 28.7 ± 0.509 | 68.3 ± 0.824 | 30.3 ± 0.721 | – | – | – | – | – | – | – | Cc1ccc(CN(C(=O)CSc2nnnn2-c2ccccc2)c2ccc(S(N)(=O)=O)cc2)cc1 [Compound 4o, N-(4-Methylbenzyl)-2-((1-phenyl-1H-tetrazol-5-yl)thio)-N-(4-sulfamoylphenyl)acetamide] | – | –
41.5 ± 0.899 | 28 ± 0.714 | 90.1 ± 1.01 | 48.4 ± 0.721 | – | – | – | – | – | – | – | NS(=O)(=O)c1ccc(N(Cc2ccccc2)C(=O)CSc2nnnn2-c2ccccc2)cc1 [Compound 4e, N-Benzyl-2-((1-phenyl-1H-tetrazol-5-yl)thio)-N-(4-sulfamoylphenyl)acetamide] | – | –
38.2 ± 0.734 | 33 ± 0.697 | 72.7 ± 1 | 40.3 ± 0.835 | 170 to 172 | – | – | – | – | – | – | Cc1ccc(CN(C(=O)CSc2nc3ccccc3s2)c2ccc(S(N)(=O)=O)cc2)cc1 [Compound 4s, 2-(Benzothiazol-2-ylthio)-N-(4-methylbenzyl)-N-(4-sulfamoylphenyl)acetamide] | – | –
39.2 ± 0.65 | 29.5 ± 0.489 | 91.6 ± 1.25 | 79.7 ± 1.46 | – | 76.2 ± 1.06 | 70.9 ± 1.01 | 47.5 ± 0.957 | 29.7 ± 0.723 | 15.2 ± 0.602 | 127 ± 5 | Cn1nnnc1SCC(=O)N(Cc1ccccc1)c1ccc(S(N)(=O)=O)cc1 [Compound 4d, N-Benzyl-2-((1-methyl-1H-tetrazol-5-yl)thio)-N-(4-sulfamoylphenyl)acetamide] | – | –
37.4 ± 0.85 | 31.1 ± 0.729 | 76.3 ± 1 | 40.1 ± 0.799 | 178 to 180 | – | – | – | – | – | – | Cc1ccc(CN(C(=O)CSc2nnc(C)s2)c2ccc(S(N)(=O)=O)cc2)cc1 [Compound 4m, 2-((5-Methyl-1,3,4-thiadiazol-2-yl)thio)-N-(4-methylbenzyl)-N-(4-sulfamoylphenyl)acetamide] | – | –
40.6 ± 0.749 | 24.1 ± 0.61 | 91.1 ± 1.25 | 48.3 ± 0.855 | 164 to 166 | – | – | – | – | – | – | Cc1nnc(SCC(=O)N(Cc2ccccc2)c2ccc(S(N)(=O)=O)cc2)s1 [Compound 4c, N-Benzyl-2-((5-methyl-1,3,4-thiadiazol-2-yl)thio)-N-(4-sulfamoylphenyl)acetamide] | – | –
